Source: patent US8664236B2, “1H-pyrrolo[2,3 b]-pyridine derivatives” (Merck Patent GmbH, priority 2010, dated 2014)
Values after ≈ are worked out from the molar mass of the structure shown. Where two headings read alike, the source gives them in different places.

Columns and labels:
[1] = molecular target: PDK1 (His6-PDK1(Δ1-50)) (Homo sapiens (Human), UniProt O15530); test: Test for the inhibition of PDK1 (enzymatic, flashplate, 33P-ATP); type: biochemical
Experimental: 4. Test for the Inhibition of PDK1
The experimental batches are carried out in a flashplate system with 384 wells/microtitration plate.
The test substances are employed in corresponding concentrations (if desired in a dilution series). The control is carried out without test substance. The reaction is stopped using standard methods and washed. The activity of the kinase is measured via the incorporated radioactivity in top count. In order to determine the non-specific kinase reaction (blank value), the experimental batches are carried out in the presence of 100 nM staurosporine.
The radioactivity (decompositions per minute) of the blank value (no use of test substance in the presence of staurosporine) is subtracted from all other radioactivity values. The controls (kinase activity without test substance) are set equal to 100 percent and all other radioactivity values (after subtracting the blank value) are expressed set in relation thereto (for example in % of the control).

[2] = Solubility; type: physicochemical; details: Table I
[3] = molecular target: PDK1 kinase in PC3 cells (PKB phosphorylation at Thr 308) (Homo sapiens (Human), UniProt O15530); test: Cellular testing of PDK1 kinase inhibitors in PC3 cells (Luminex, phospho-T308-PKB); type: cell-based
Experimental: Method for the Cellular Testing of PDK1 Kinase Inhibitors in PC3 Cells
The cellular assay for the determination of the PDK1 kinase activity is carried out as a Luminex assay in the 96-well format. PC3 cells are sown at 20,000 cells per well in 100 μl of medium (45% of […]/45% of Ham's F12/10% of FCS) and incubated on the following day for 30 min with a serial dilution of the test substance (7 concentrations) under serum-free conditions. The cells are subsequently lysed using 90 μl of lysis buffer (20 mM tris/HCl pH 8.0, 150 mM NaCl, 1% of NP40, 10% of glycerol, 1% of phosphatase inhibitor I, 1% of phosphatase inhibitor II, 0.1% of protease inhibitor cocktail III, 0.01% of benzonase) per well, and the lysates are separated off from insoluble cell constituents by means of centrifugation through a 96-well filter plate (0.65 μm). The lysates are incubated overnight at 4° C. with shaking with Luminex beads to which an anti-total PKB antibody is coupled. The detection is carried out on the following day by addition of a phospho-T308-PKB antibody and a species-specific […] secondary antibody. The detection of phospho-T308-PKB is carried out by measurement in a Luminex100 instrument by determination of 100 events per cavity in a measurement time of 60 sec. […] The values of the batches treated with test substance are calculated therefrom as percentage of control, and IC50 values are determined by means of RS1.

[4] = Table I comparison, read-out: PDK1 inhibition assay enzymatic IC50
[5] = enzymatic PDK1 inhibition assay, read-out: enzymatic IC50
[6] = PKB phosphorylation at Thr 308 in PC3 cells, read-out: cellular IC50
[7] = Table I comparison, values in nM, read-out: PDK1 inhibition assay cellular IC50
[8] = Table I comparison, values given in μM, read-out: PDK1 inhibition assay cellular IC50

PDK1 kinase in PC3 cells (PKB phosphorylation at Thr 308), sequence (O15530 whole entry): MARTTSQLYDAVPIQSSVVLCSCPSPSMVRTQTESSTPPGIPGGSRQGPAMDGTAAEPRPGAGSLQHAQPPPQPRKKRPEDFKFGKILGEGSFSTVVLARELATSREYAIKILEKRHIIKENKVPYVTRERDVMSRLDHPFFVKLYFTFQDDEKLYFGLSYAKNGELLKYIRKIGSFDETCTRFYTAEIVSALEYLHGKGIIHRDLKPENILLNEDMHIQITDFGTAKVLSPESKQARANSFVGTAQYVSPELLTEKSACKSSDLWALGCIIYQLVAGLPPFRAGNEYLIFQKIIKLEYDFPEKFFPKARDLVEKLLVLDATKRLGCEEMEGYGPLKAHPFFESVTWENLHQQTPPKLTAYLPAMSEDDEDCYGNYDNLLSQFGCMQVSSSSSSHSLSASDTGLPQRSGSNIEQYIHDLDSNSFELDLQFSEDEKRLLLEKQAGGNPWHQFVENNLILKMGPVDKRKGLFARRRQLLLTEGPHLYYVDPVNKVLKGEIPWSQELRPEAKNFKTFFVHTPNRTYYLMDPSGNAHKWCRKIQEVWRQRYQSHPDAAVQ
PDK1 (His6-PDK1(Δ1-50)), sequence (O15530 51-556): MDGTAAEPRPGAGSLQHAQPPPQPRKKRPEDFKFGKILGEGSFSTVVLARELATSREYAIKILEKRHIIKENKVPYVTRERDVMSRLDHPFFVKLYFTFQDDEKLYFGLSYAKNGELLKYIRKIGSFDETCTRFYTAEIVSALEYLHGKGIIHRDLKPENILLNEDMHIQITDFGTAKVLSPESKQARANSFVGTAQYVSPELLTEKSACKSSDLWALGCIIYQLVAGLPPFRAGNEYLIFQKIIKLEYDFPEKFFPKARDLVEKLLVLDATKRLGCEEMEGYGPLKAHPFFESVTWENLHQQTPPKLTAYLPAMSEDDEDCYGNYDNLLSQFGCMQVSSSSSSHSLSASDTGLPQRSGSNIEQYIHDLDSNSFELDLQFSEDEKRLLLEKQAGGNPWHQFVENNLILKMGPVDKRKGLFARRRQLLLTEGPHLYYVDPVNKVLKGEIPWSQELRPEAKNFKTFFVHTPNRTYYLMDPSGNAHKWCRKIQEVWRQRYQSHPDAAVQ

## Cn1cc(-c2cnc3[nH]cc(-c4cc(N(CCO)c5ccccc5)nc(N)n4)c3c2)cn1 [A4, 2-({2-Amino-6-[5-(1-methyl-1H-pyrazol-4-yl)-1H-pyrrolo[2,3-b]-pyridin-3-yl]pyrimidin-4-yl}phenylamino)ethanol]
[1]; [4]
  IC50: 13 nM
[1]; [5]
  IC50: 13 nM
[2]
  solubility: 1 µg/mL (≈ 2.34 µM)
[3]; [6]
  IC50: 250 nM
[3]; [7]
  IC50: 250 nM

## CC(=O)NCCCc1cc(-c2c[nH]c3ncc(-c4cnn(C(C)C)c4)cc23)nc(N)n1 [reference compound]
[1]; [4]
  IC50: 240 nM
[2]
  solubility: > 46 µg/mL
[3]; [8]
  IC50: > 30000 nM

## CC(C)n1cc(-c2cnc3[nH]cc(-c4cc(C5(O)CCCC5)nc(N)n4)c3c2)cn1 [reference compound]
[1]; [4]
  IC50: 61 nM
[2]
  solubility: 8 µg/mL (≈ 19.8 µM)
[3]; [8]
  IC50: 3500 nM

## CC(C)n1cc(-c2cnc3[nH]cc(-c4cc(C(C)(O)c5ccccc5)nc(N)n4)c3c2)cn1 (centres unmarked) [reference compound]
[1]; [4]
  IC50: 54 nM
[2]
  solubility: < 1 µg/mL
[3]; [7]
  IC50: 492 nM

## Cn1cc(-c2cnc3[nH]cc(-c4cc(C(C)(C)c5ccccc5)nc(N)n4)c3c2)cn1 [A2, 4-(1-Methyl-1-phenylethyl)-6-[5-(1-methyl-1H-pyrazol-4-yl)-1H-pyrrolo[2,3-b]pyridin-3-yl]pyrimidin-2-ylamine]
[1]; [5]
  IC50: 65 nM
[3]; [6]
  IC50: 140 nM

## Cn1cc(-c2cnc3[nH]cc(-c4cc(C5(c6ccccc6)CCCC5)nc(N)n4)c3c2)cn1 [A6, 4-[5-(1-Methyl-1H-pyrazol-4-yl)-1H-pyrrolo[2,3-b]pyridin-3-yl]-6-(1-phenylcyclopentyl)pyrimidin-2-ylamine]
[1]; [4]
  IC50: 130 nM
[1]; [5]
  IC50: 130 nM
[2]
  solubility: < 1 µg/mL
[3]; [6]
  IC50: 625 nM
[3]; [8]
  IC50: 625 nM

## Cn1cc(-c2cnc3[nH]cc(-c4cc(C5(c6ccccc6F)CC5)nc(N)n4)c3c2)cn1 [A42, 4-[1-(2-Fluorophenyl)cyclopropyl]-6-[5-(1-methyl-1H-pyrazol-4-yl)-1H-pyrrolo[2,3-b]pyridin-3-yl]pyrimidin-2-ylamine]
[1]; [5]
  IC50: 45.5 nM
[3]; [6]
  IC50: 20 nM

## CCN(c1ccccc1)c1cc(-c2c[nH]c3ncc(-c4cnn(C)c4)cc23)nc(N)n1 [A12, N4-Ethyl-6-[5-(1-methyl-1H-pyrazol-4-yl)-1H-pyrrolo[2,3-b]-pyridin-3-yl]-N4-phenylpyrimidine-2,4-diamine]
[1]; [5]
  IC50: 12 nM
[3]; [6]
  IC50: 690 nM

## Cn1cc(-c2cnc3[nH]cc(-c4cc(N(CCO)c5ccccc5Cl)nc(N)n4)c3c2)cn1 [A16, 2-[{2-Amino-6-[5-(1-methyl-1H-pyrazol-4-yl)-1H-pyrrolo[2,3-b]-pyridin-3-yl]pyrimidin-4-yl}-(2-chlorophenyl)amino]ethanol]
[1]; [5]
  IC50: 4.7 nM
[3]; [6]
  IC50: 2.6 nM

## COCC(O)CN(c1ccccc1)c1cc(-c2c[nH]c3ncc(-c4cnn(C)c4)cc23)nc(N)n1 (centres unmarked) [A21, 1-({2-Amino-6-[5-(1-methyl-1H-pyrazol-4-yl)-1H-pyrrolo[2,3-b]-pyridin-3-yl]pyrimidin-4-yl}phenylamino)-3-methoxypropan-2-ol]
[1]; [5]
  IC50: 11 nM
[3]; [6]
  IC50: 520 nM

## Cn1cc(-c2cnc3[nH]cc(-c4cc(N(CCO)c5ccc(F)cc5F)nc(N)n4)c3c2)cn1 [A25, 2-[{2-Amino-6-[5-(1-methyl-1H-pyrazol-4-yl)-1H-pyrrolo[2,3-b]-pyridin-3-yl]pyrimidin-4-yl)-(2,4-difluorophenyl)amino]ethanol]
[1]; [5]
  IC50: 6.5 nM
[3]; [6]
  IC50: 35 nM

## Cn1cc(-c2cnc3[nH]cc(-c4cc(N(CCCN)c5ccccc5)nc(N)n4)c3c2)cn1 [A31, N4-(3-Aminopropyl)-6-[5-(1-methyl-1H-pyrazol-4-yl)-1H-pyrrolo[2,3-b]pyridin-3-yl]-N4-phenylpyrimidine-2,4-diamine]
[1]; [4]
  IC50: 8.7 nM
[1]; [5]
  IC50: 8.7 nM
[3]; [6]
  IC50: 6800 nM
[3]; [8]
  IC50: 6800 nM
